From patent US12459951B2, “Compounds that interact with RAS superfamily proteins for treatment of cancers, inflammatory diseases, rasopathies, and fibrotic disease” (SHY Therapeutics, LLC, priority 2022, dated 2025) come the findings set out here.

The target of one test is T1, Rho-A (Homo sapiens, UniProt P61586).
T1 construct: made in house
The test can be described thus: Ras GTP Binding Domain Inhibition Assay (Ras Superfamily Assay). The settings on record: read-out: Rho-A: % inh.. The method, boiled down:
(§1)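 Binding of 100 nM fluorescent GTP (Cy3 or Cy5, 45 min, room temperature) was read after washes from plate-captured His-tagged protein. Beforehand, compounds at 20 μM or in dilution series for IC50 sat 3 h on the protein in Tris buffer pH 7.4 or 7.0 with 1% DMSO, Sos GEF optionally added for the last hour.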

Another test concerns KRas G12D mutant. The test is described as above. As to conditions: 20 μM compound; for KRas G12D mutant + SOS: % inh.: with SOS; for KRas G12D mutant: % inh.: without SOS. The method, boiled down: as §1
Another test relates to KRas wild type. The description is as above. The settings on record: 20 μM compound; for KRas wild type + SOS: % inh.: with SOS; for KRas wild type: % inh.: without SOS. Summed up: as §1
Test [1] has as its system MiaPaca-2 (expressing KRAS G12C mutant). The test can be described thus: Proliferation Assay (Cell Viability Assay). As to conditions: Homo sapiens, MIA PaCa-2; read-out: Proliferation in MiaPaca-2: IC50. The class given is cell-based. Summed up:
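After 2–4 days' exposure at 37 °C, 5% CO2 to a single 10 μM final concentration or a dilution series (IC50), percent proliferation inhibition was derived from CellTiter 96 Aqueous One viability readings. The medium contained 0.3% DMSO and 10% FBS. KRAS G12C MiaPaca-2 cells were plated at 2000–5000/well the day before.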

T1 sequence (P61586 whole entry): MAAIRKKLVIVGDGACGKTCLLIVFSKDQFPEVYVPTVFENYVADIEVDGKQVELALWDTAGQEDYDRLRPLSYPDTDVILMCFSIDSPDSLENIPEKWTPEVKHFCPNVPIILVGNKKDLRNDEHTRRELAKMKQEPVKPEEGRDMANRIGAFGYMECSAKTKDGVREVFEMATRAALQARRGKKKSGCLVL

For the molecule `COc1cccc(-c2cn3nc(-c4nccn4C)nc(O)c3c2-c2ccccc2)c1Cl` [Compound 28, 6-(2-Chloro-3-methoxyphenyl)-2-(1-methyl-1H-imidazol-2-yl)-5-phenylpyrrolo[2,1-f][1,2,4]triazin-4-ol], the inhibition at 20 µM on Rho-A is 1 to 25%. For the same molecule, in the test with KRas G12D mutant, the “KRas G12D mutant + SOS: % inh.” value is recorded as “A (A = 1-25% inhibition)” and the “KRas G12D mutant: % inh.” value was “A (A = 1-25% inhibition)”. Also, in the test with KRas wild type, the “KRas wild type + SOS: % inh.” value was “A (A = 1-25% inhibition)” and the “KRas wild type: % inh.” value is on record as “A (A = 1-25% inhibition)”. In test [1], the IC50 was more than 1000 nM.
For `COc1cccc(-c2cn3nc(-c4nccn4C)nc(N[C@@H]4CC[C@H](OC)C4)c3c2-c2ccccc2)c1Cl` (racemic) [Compound 33, rac 6-(2-Chloro-3-methoxyphenyl)-N-((1R,3S)-3-methoxycyclopentyl)-2-(1-methyl-1H-imidazol-2-yl)-5-phenylpyrrolo[2,1-f][1,2,4]triazin-4-amine], on Rho-A, the inhibition at 20 µM lay in the range of 1 to 25%. Also, in the test with KRas G12D mutant, the “KRas G12D mutant + SOS: % inh.” value was 0 (0 = 0% inhibition) and the “KRas G12D mutant: % inh.” value was “A (A = 1-25% inhibition)”. For the same molecule, in the test with KRas wild type, the “KRas wild type + SOS: % inh.” value is listed as 0 (0 = 0% inhibition) and the “KRas wild type: % inh.” value is recorded as “A (A = 1-25% inhibition)”. Besides, the IC50 in test [1] lay in the range of 510 to 1000 nM.
